Tested on: Mycobacterium avium
Experiment: Growth index for Mycobacterium avium sub species paratuberculosis was measured relative to mycobactin J
Assay type: functional

| Structure (SMILES) | Growth Index |
| --- | --- |
| CCCCCCCCCCCCC/C=C/C(=O)N(O)CCCC[C@H](NC(=O)[C@@H]1CCC(c2ccccc2O)=N1)C(=O)OC(C(C)C)C(C)C(=O)N[C@H]1CCCCN(O)C1=O (stereo partly specified) | 1 |
| CCCCC/C=C/C(=O)N(O)CCCCCNC(=O)CC(O)(CC(=O)NCCCCCN(O)C(=O)/C=C/CCCCC)C(=O)O | 0.96 |
| CCCCC/C=C/C(=O)N(O)CCCCCCNC(=O)CC1(O)CC(=O)N(CCCCCCN(O)C(=O)/C=C/CCCCC)C1=O (stereo unspecified) | 1.01 |
| CCCCC/C=C/C(=O)N(O)CCCCCNC(=O)CC1(O)CC(=O)N(CCCCCN(O)C(=O)/C=C/CCCCC)C1=O (stereo unspecified) | 1.17 |
| CCCCC/C=C/C(=O)N(O)CCCCCCNC(=O)CC(O)(CC(=O)NCCCCCCN(O)C(=O)/C=C/CCCCC)C(=O)O | 0.95 |
| CC(=O)N(O)CCCCCNC(=O)CCC(=O)N(O)CCCCCNC(=O)CCC(=O)N(O)CCCCCN [DEFEROXAMINE] | 1.09 |
